Results taken from US20060241172A1, “Benzodioxane and benzodioxolane derivatives and uses thereof” (Wyeth, priority 2005, published 2006).

What was measured:
[1] = test system: male C57BL/6J mice and lean Zucker rats; test: Obesity Model A: acute food intake after overnight fast, oral dosing; format: in vivo
Experimental: To evaluate acute in vivo efficacy of various compounds, 7 weeks-old male C57BL/6J mice were obtained from The Jackson Laboratory (Bar Harbor, Me.) and 6 weeks-old lean Zucker rats were purchased from Charles River Laboratories (Wilmington, Mass.). Mice and rats were single housed in a temperature-controlled (25° C.) facility with a 12-h light/dark cycle. Animals were allowed normal chow diet (Rodent chow #5001, PharmaServ, Framingham, Mass.) and water ad libitum. After one week acclimation, animals were randomized to vehicle (saline) or treatment groups. Animals were fasted overnight (16 hrs) and orally dosed with vehicle or compounds. Thirty minutes after compound administration, animals were given a weighed amount of food, and food intake was recorded 30 minutes, 1 h, 2 h, 4 h, 7 h and 24 h after refeeding.

[2] = target: T1, human 5-hydroxytryptamine-2C (h5-HT2C) receptor (Homo sapiens, UniProt P28335); test: 5-HT2C binding: [125I]DOI displacement in membranes of transfected CHO cells; conditions: read-out: 5-HT2C Binding Ki avg
T1 construct: expressed in transfected cells; host or cells: CHO (Chinese Hamster Ovary) cells; membranes
T1 sequence (P28335 33-458): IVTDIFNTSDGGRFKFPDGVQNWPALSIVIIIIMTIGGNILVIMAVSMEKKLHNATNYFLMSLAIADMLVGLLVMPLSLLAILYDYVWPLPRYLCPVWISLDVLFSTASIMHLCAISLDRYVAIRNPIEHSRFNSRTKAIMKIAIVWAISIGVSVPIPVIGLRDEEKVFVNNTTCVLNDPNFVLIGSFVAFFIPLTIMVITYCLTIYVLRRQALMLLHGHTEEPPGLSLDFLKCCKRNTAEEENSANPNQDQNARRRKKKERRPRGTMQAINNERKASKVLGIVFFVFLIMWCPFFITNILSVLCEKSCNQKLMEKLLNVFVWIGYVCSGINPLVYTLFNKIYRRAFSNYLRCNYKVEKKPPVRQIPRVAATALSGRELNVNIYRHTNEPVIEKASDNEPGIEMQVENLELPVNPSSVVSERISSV

human 5-HT2C receptor = target: T2, human 5-HT2C receptor (Homo sapiens, UniProt P28335); test: 5-HT2C receptor-stimulated calcium mobilization (FLIPR) in CHO cells; format: cell-based; conditions: for Emax: CHO, read-out: 5-HT2C Function EMax (%); for EC50: read-out: 5-HT2C Function EC50
T2 sequence (P28335 33-458): T1 sequence (P28335 33-458)

[3] = target: T3, human serotonin 5-HT2C receptor (Homo sapiens, UniProt P28335); test: Saturation binding of [125I] DOI; conditions: saturation binding with increasing concentrations of [125I] DOI; read-out: dissociation constant, KD
T3 construct: expressed in transfected cells; host or cells: CHO (Chinese Hamster Ovary) cells; membranes
T3 sequence (P28335 33-458): T1 sequence (P28335 33-458)
Experimental: DOI. The reaction was initiated by the final addition of 100 μL of tissue suspension containing 50 μg of receptor protein. […] Test compounds were added in 20.0 μL. The mixture was incubated at room temperature for 60 min. The incubation was stopped by rapid filtration. The bound ligand-receptor complex was filtered off on a 96 well unifilter with a Packard® Filtermate 196 Harvester. The bound complex caught on the filter disk was dried in a vacuum oven heated to 60° C. and the radioactivity measured by liquid scintillation with 40 μL Microscint-20 scintillant in a Packard TopCount® equipped with six (6) photomultiplier detectors.

[4] = 10 mpk oral, 0.5 hour after refeeding
[5] = 10 mpk oral, 2 hours after refeeding
[6] = 10 mpk oral, 4 hours after refeeding
[7] = 30 mpk oral, 0.5 hour after refeeding
[8] = 30 mpk oral, 2 hours after refeeding
[9] = 30 mpk oral, 4 hours after refeeding
[10] = 50 mpk oral, 0.5 hour after refeeding
[11] = 50 mpk oral, 2 hours after refeeding
[12] = 50 mpk oral, 4 hours after refeeding

Structure (SMILES) | % Reduction food intake (vs vehicle) [1, 4] [%] | % Reduction food intake (vs vehicle) [1, 5] [%] | % Reduction food intake (vs vehicle) [1, 6] [%] | % Reduction food intake (vs vehicle) [1, 7] [%] | % Reduction food intake (vs vehicle) [1, 8] [%] | % Reduction food intake (vs vehicle) [1, 9] [%] | % Reduction food intake (vs vehicle) [1, 10] [%] | % Reduction food intake (vs vehicle) [1, 11] [%] | % Reduction food intake (vs vehicle) [1, 12] [%] | Ki [2] [µM] | Emax (human 5-HT2C receptor) [%] | EC50 (human 5-HT2C receptor) [µM] | % Reduction food intake (vs vehicle) ([1]; 1 mpk oral, 0.5 hour after refeeding) [%] | % Reduction food intake (vs vehicle) ([1]; 1 mpk oral, 2 hours after refeeding) [%] | % Reduction food intake (vs vehicle) ([1]; 1 mpk oral, 4 hours after refeeding) [%] | % Reduction food intake (vs vehicle) ([1]; 3 mpk oral, 0.5 hour after refeeding) [%] | % Reduction food intake (vs vehicle) ([1]; 3 mpk oral, 2 hours after refeeding) [%] | % Reduction food intake (vs vehicle) ([1]; 3 mpk oral, 4 hours after refeeding) [%] | Kd [3] [µM]
NCC1COc2cccc(-c3ccccc3C(F)(F)F)c2O1 (stereo not shown) [Compound I-4, ({8-[2-(Trifluoromethyl)phenyl]-2,3-dihydro-1,4-benzodioxin-2-yl}methyl)amine] | 9 ± 6 | 5 ± 8 | 2 ± 7 | 29 ± 7 | 14 ± 8 | 0 ± 16 | 56 ± 10 | 27 ± 11 | 8 ± 14 | < 0.05 | 70 | < 0.1 |  |  |  |  |  |  | 
NC[C@H]1COc2cccc(-c3c(Cl)cccc3Cl)c2O1 [Compound I-46, {[(2S)-8-(2,6-Dichlorophenyl)-2,3-dihydro-1,4-benzodioxin-2-yl]methyl}amine] | 74 ± 7 | 68 ± 5 | 51 ± 4 | 78 ± 14 | 88 ± 8 | 82 ± 7 | 100 ± 11 | 100 ± 5 | 98 ± 4 | < 0.05 | 50 | < 0.1 | 0 ± 12 | 0 ± 6 | 1 ± 8 | 12 ± 8 | 11 ± 5 | 14 ± 7 | 
COc1cc(CC(C)N)c(OC)cc1I (stereo not shown) [[^125I] DOI] |  |  |  |  |  |  |  |  |  |  |  |  |  |  |  |  |  |  | 0.0004
